Results on two compounds are retold here after patent US6509377B1, “Use of a 2-hydroxy-4-trifluoromethylbenzoic acid derivatives as inhibitors of the activation of the nuclear transcription factor NF-κB” (J. Uriach & Cia, S.A., priority 1999, dated 2003).

For one experiment, the system named is β-actin. The experiment in a line: Expression of β-actin mRNA in HUVEC (RT-PCR, constitutive control gene). Type of experiment: cell-based, human. To be noted: 4 mM. The source says: Primers used for the detection of VCAM-1 mRNA by RT-PCR were designed from the human gene sequence (EMBUGenBank AC: M30257), using the Wisconsin Package Version 9.1, Genetics Computer Group (GCG), Madison, Wis. Their sequences were 5′-TGTCACTGTMGCTGCMG-3′ and 5′-TTCCAGCCTGGTTAATTC-3′, corresponding to nucleotides 1090-1108 and 1589-1572 (L. Osbom et al., Cell 1989, 59(6), 1203-1211). Total RNA was extracted from cultured cells using the guanidium isothiocyanate method (P. Chomczynski and N. Sacchi, Anal Biochem. 1987, 162(1), 156-159). cDNA first strand was synthesized from total RNA by reverse transcription reaction. […] The relative amounts of each amplified cDNA were determined by measuring the density of the bands stained with ethidium bromide using the Gel Doc documentation system and the Molecular Analyst software from Bio-Rad Laboratories, Hercules, Calif. […]
Specifically, the effect of Triflusal (4 mM) and HTB (4 mM) on the regulation of the expression of VCAM-1 mRNA induced by TNF-α (100 U/ml) in HUVEC was studied. […] The PCR products were separated by electrophoresis in a 1.8% agarose gel and were later quantified. The molecular weight of the amplification products was determined from the electrophoretic migration of DNA size standards.

The test system of experiment [1] is cocultures of rat neurons and astrocytes. Nature of the experiment: Neuronal cell death in cocultures of neurons and astrocytes induced by oxygen-glucose deprivation (OGD). Type of experiment: cell-based. The settings on record: 4 h OGD, 24-hour recovery; triflusal 10 and 30 μg/ml; HTB 20 and 100 μg/ml. As to the method:
To carry out this study, an in vitro model of neuronal ischemia based on cocultures of neurons and glial cells was used. Primary cultures of type 1 astrocytes were prepared from 1-day old Wistar rats. Astrocytes were plated onto 60 mm, poly-D-lysine-coated plates. These cells were allowed to grow until they were confluent (about 11 days) and then rat primary neurons were plated onto them and were allowed to grow for 10 days. In addition, separate cultures of each one of the two types of cells were prepared.
Half of the cultures were exposed for four hours to oxygenlucose deprivation (OGD), followed by a 24-hour recovery period. Both the cells exposed to OGD and control cells, were treated at the start of OGD with 0, 10 and 30 μg/ml triflusal in a series of experiments and with 0, 20 and 100 μg/ml HTB in another series. After the 24-hour recovery period, the release of lactate dehydrogenase (LDH) into the medium was determined as a measure of cellular death, as well as the degree of apoptosis in the cultures (using the TUNEL assay) and total neuron and astrocyte counts present in the coculture (using Hoescht staining).

The subject of another experiment is COX-2. The experiment in a line: PGE2 production induced by LPS in human PBMC (ELISA). To be noted: LPS 10 μg/ml, 19 hours, 0.1-5 mM. Type of experiment: cell-based. On the procedure:
Mononuclear cells (PBMC) were obtained from blood of healthy donors from the Hospital de Sant Pau, (Barcelona) who had not taken any antiinflammatory drug during a period of not less than 2 weeks before blood extraction. Starting from a volume of about 80 ml of heparinized human blood (10 U/ml), this was diluted (1:1) with PBS (pH 7.4; Dulbecco) without calcium, magnesium nor sodium bicarbonate. 15 ml of Ficoll solution (d=1.077 at 20° C.; Biochrom KG) were placed in 50-ml Falcon tubes. To this solution a volume of about 25 ml per tube of the blood previously diluted with PBS was carefully added and the tubes were then centrifuged at 1,200 g for 20 minutes. Mononudear cells concentrate on a whitish interphase between the plasma and the Ficoll solution. This interphase was collected with a Pasteur pipette and was diluted 1:1 with PBS. It was then centrifuged at 300 g, 10 min. The resulting pellet was resuspended in 50 ml PBS and was again centrifuged at 200 g for 10 min in order to remove platelet contamination. Finally, the resulting pellet was resuspended in 20 ml RPMI-1640 culture medium (GibcoBRL) supplemented with 10% fetal calf serum. […]
Finally, the supernatants from each experiment that had been stored at −70° C. were defrozen and the amount of PGE2 in solution was determined using specific ELISA kits (Amershan-Biotrak RPN22).
(In an ELISA, binding on a coated surface is turned into a signal by an enzyme label.)

The structures appear in SMILES notation.

Consider `CC(=O)Oc1cc(C(F)(F)F)ccc1C(=O)O` [triflusal, 2-Acetyloxy-4-trifluoromethylbenzoic acid, reference compound], for which, in the experiment with β-actin, the “effect on the expression of β-actin mRNA” value is on record as “absence of effect”. In experiment [1], the “increase in LDH release induced by OGD” value is listed as “completely inhibited” and the “increase in number of apoptotic neurons induced by OGD (TUNEL)” value is “completely inhibited”. For the same compound, the “inhibition of PGE2 production” value in the experiment with COX-2 is given as “concentration-dependently inhibit”.

Take `O=C(O)c1ccc(C(F)(F)F)cc1O` [HTB, 2-hydroxy-4-trifluoromethylbenzoic acid]: in the experiment on β-actin, the “effect on the expression of β-actin mRNA” value was “absence of effect”. In experiment [1], the “increase in LDH release induced by OGD” value is listed as “completely inhibited” and the “increase in number of apoptotic neurons induced by OGD (TUNEL)” value was “completely inhibited”. In addition, the “inhibition of PGE2 production” value with COX-2 is “concentration-dependently inhibit”.
